pKd: −log10 of the molar value. The source made the active and inactive calls. No cut-off for these calls is given here. Residues, ends and D or L forms follow the SMILES beside them.
Columns and labels:
[1] = Stability of compound in human serum at 100 uM measured over 24 hrs by RP-HPLC analysis; type: ADME, cell-free
[2] = system: N9; experiment: Inhibition of NLRP3 inflammasome activation in LPS/tau-stimulated mouse N9 cells assessed as reduction in IL-1beta secretion at 10 to 20 uM preincubated with LPS for 4 hrs followed by compound addition for 30 mins and measured after tau stimulation for 24 hrs by ELISA; type: cell-based; settings: dose 10-20 µM, time 24.5 hrs
[3] = system: N9; experiment: Inhibition of AIM2 inflammasome activation mediated pyroptosis in LPS/poly(dA:dT)-stimulated mouse N9 cells assessed as reduction in cell death at 50 uM by MTT assay; type: cell-based
[4] = system: N9; experiment: Inhibition of NLRP3 inflammasome activation mediated pyroptosis in LPS/ATP-stimulated mouse N9 cells assessed as reduction in cell death at 100 uM measured after 24 hrs by MTT assay; type: cell-based
[5] = system: N9; experiment: Inhibition of NLRP3 inflammasome activation mediated in LPS/tau-stimulated mouse N9 cells assessed as decrease in mitochondrial ROS generation by flow cytometric analysis; type: cell-based; settings: dose 5-30 µM
[6] = system: N9; experiment: Inhibition of NLRP3 inflammasome activation mediated in LPS/alpha-synuclein-stimulated mouse N9 cells assessed as increase in mitochondrial membrane potential by flow cytometric analysis; type: cell-based; settings: dose 5-30 µM
[7] = system: N9; experiment: Inhibition of NLRP3 inflammasome activation mediated pyroptosis in LPS/tau-stimulated mouse N9 cells assessed as reduction in cell death at 5 to 30 uM by MTT assay; type: cell-based; settings: dose 5-30 µM
[8] = system: N9; experiment: Inhibition of NLRP3 inflammasome activation mediated mitochondrial damage in LPS/ATP-stimulated mouse N9 cells assessed as reduction in mitochondrial ROS level by MitoSOX red staining based confocal microscopic analysis; type: cell-based; settings: dose 10-20 µM
[9] = system: N9; experiment: Inhibition of NLRP3 inflammasome activation in LPS/ATP-stimulated mouse N9 cells assessed as increase in mitochondrial membrane potential preincubated with LPS for 4 hrs followed by compound addition for 30 mins and measured after ATP stimulation for 1 hrs by Rhodamine 123 staining based flow cytometric analysis; type: cell-based; settings: dose 10-30 µM, time 1.5 hrs
[10] = system: N9; experiment: Inhibition of NLRP3 inflammasome activation mediated pyroptosis in LPS/alpha-synuclein-stimulated mouse N9 cells assessed as reduction in cell death at 5 to 30 uM by MTT assay; type: cell-based; settings: dose 5-30 µM
[11] = target: T1, Apoptosis-associated speck-like protein containing a CARD (Homo sapiens, UniProt Q9ULZ3); experiment: Binding affinity to Alexa647-labeled ASC (unknown origin) assessed as dissociation constant incubated for 5 mins by fluorescence spectra based analysis
[12] = target: T1, Apoptosis-associated speck-like protein containing a CARD; experiment: Binding affinity to Alexa647-labeled ASC (unknown origin) assessed as equilibrium dissociation constant incubated for 30 mins by MST analysis
[13] = system: N9; experiment: Inhibition of NLRP3 inflammasome activation in LPS/ATP-stimulated mouse N9 cells assessed as inhibition of ASC speck formation at 20 to 30 uM preincubated with LPS for 4 hrs followed by compound addition by 30 mins and measured after 45 mins of ATP stimulation by DAPI staining based immunofluorescence analysis; type: cell-based; settings: dose 20-30 µM, time 75.0 min
[14] = system: N9; experiment: Inhibition of NLRP3 inflammasome activation in LPS/tau-stimulated mouse N9 cells assessed as inhibition of ASC speck formation preincubated with LPS for 4 hrs followed by compound addition by 30 mins and measured after 24 hrs of tau stimulation by DAPI staining based immunofluorescence analysis; type: cell-based; settings: dose 10-20 µM, time 24.5 hrs
[15] = Stability of compound in fetal bovine serum at 100 uM measured after 48 hrs by RP-HPLC analysis; type: ADME, cell-free, Bos taurus; settings: cattle
[16] = system: N9; experiment: Inhibition of NLRP3 inflammasome activation in LPS/ATP-stimulated mouse N9 cells assessed as reduction in IL-1beta secretion at 10 to 20 uM preincubated with LPS for 4 hrs followed by compound addition for 30 mins and measured after ATP stimulation for 45 mins by ELISA; type: cell-based; settings: dose 10-20 µM, time 75.0 min
[17] = system: HEK-293T; experiment: Cytotoxicity against HEK293T cells assessed as reduction in cell viability upto 100 uM measured after 24 hrs by MTT assay; type: toxicity, cell-based; settings: human
[18] = system: N9; experiment: Inhibition of NLRP3 inflammasome activation mediated in LPS/alpha-synuclein-stimulated mouse N9 cells assessed as decrease in mitochondrial ROS generation by flow cytometric analysis; type: cell-based; settings: dose 5-30 µM
[19] = system: N9; experiment: Inhibition of NLRP3 inflammasome activation mediated ROS production in LPS/ATP-stimulated mouse N9 cells preincubated with LPS for 4 hrs followed by compound addition for 30 mins and measured after ATP stimulation for 1 hrs by DCFDA staining based flow cytometric analysis; type: cell-based; settings: dose 10-30 µM, time 1.5 hrs
[20] = system: N9; experiment: Inhibition of NLRP3 inflammasome activation mediated pyroptosis in LPS/ATP-stimulated mouse N9 cells assessed as reduction in number of PI-positive cells preincubated with compound and LPS for 4 hrs followed by ATP addition and measured after 24 hrs by calcein AM/PI staining based confocal imaging analysis; type: cell-based; settings: dose 5-20 µM, time 28.0 hrs
[21] = system: N9; experiment: Inhibition of NLRP3 inflammasome activation mediated pyroptosis in LPS/ATP-stimulated mouse N9 cells assessed as reduction in cell death preincubated with compound followed by LPS stimulation by MTT assay; type: cell-based; settings: dose 5-20 µM
[22] = system: N9; experiment: Inhibition of NLRP3 inflammasome activation mediated mitochondrial damage in LPS/ATP-stimulated mouse N9 cells assessed as normal tubular structure of mitochondria at 10 to 20 uM by […] staining based confocal microscopic analysis; settings: dose 10-20 µM
[23] = system: N9; experiment: Effect on TNF-alpha mRNA expression in LPS/ATP-stimulated mouse N9 cells at 1 to 100 uM by qRT-PCR analysis; type: functional, cell-based; settings: dose 1-100 µM
[24] = system: N9; experiment: Inhibition of NLRP3 inflammasome activation mediated in LPS/amyloid-beta-stimulated mouse N9 cells assessed as decrease in mitochondrial ROS generation by flow cytometric analysis; type: cell-based; settings: dose 5-30 µM
[25] = system: N9; experiment: Inhibition of NLRP3 inflammasome activation in LPS/ATP-stimulated mouse N9 cells assessed as increase in intracellular chloride level preincubated with LPS for 4 hrs followed by compound addition for 30 mins and measured after ATP stimulation for 50 mins by MQAE dye based analysis; type: cell-based; settings: time 80.0 min
[26] = system: N9; experiment: Inhibition of NLRP3 inflammasome activation in LPS/ATP-stimulated mouse N9 cells assessed as reduction in IL-1beta mRNA expression by measuring remaining activity at 20 uM by qRT-PCR analysis relative to control; type: cell-based
[27] = Cytotoxicity against mouse N9 cells assessed as reduction in cell viability at 100 uM incubated for 24 hrs by MTT assay; type: toxicity, cell-based; settings: n9, 24 h
[28] = system: N9; experiment: Inhibition of NLRP3 inflammasome activation in LPS/amyloid-beta-stimulated mouse N9 cells assessed as inhibition of ASC speck formation preincubated with LPS for 4 hrs followed by compound addition by 30 mins and measured after 16 hrs of amyloid-beta stimulation by DAPI staining based immunofluorescence analysis; type: cell-based; settings: dose 10-20 µM, time 16.5 hrs
[29] = system: N9; experiment: Inhibition of NLRP3 inflammasome activation in LPS/ATP-stimulated mouse N9 cells assessed as increase in intracellular potassium level at 10 to 25 uM preincubated with LPS for 4 hrs followed by compound addition for 30 mins and measured after ATP stimulation for 1 hrs by ICP-OES analysis; type: cell-based; settings: dose 10-25 µM, time 1.5 hrs
[30] = system: N9; experiment: Inhibition of NLRP3 inflammasome activation mediated pyroptosis in LPS/ATP-stimulated mouse N9 cells assessed as reduction in cell death measured after 24 hrs by MTT assay; type: cell-based; settings: dose 5-30 µM

T1 sequence (Q9ULZ3 whole entry): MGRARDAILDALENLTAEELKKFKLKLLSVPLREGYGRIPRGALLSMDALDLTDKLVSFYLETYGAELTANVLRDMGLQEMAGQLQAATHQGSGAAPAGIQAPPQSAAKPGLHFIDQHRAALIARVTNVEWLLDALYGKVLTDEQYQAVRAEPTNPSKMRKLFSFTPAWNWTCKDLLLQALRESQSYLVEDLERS

SMILES: CC[C@H](C)[C@H](NC(=O)[C@H](C)NC(=O)[C@H](C)NC(=O)[C@H](CC(C)C)NC(=O)[C@@H](NC(=O)[C@H](Cc1c[nH]c2ccccc12)NC(=O)[C@@H](N)C(C)C)[C@@H](C)CC)C(=O)N[C@@H](CC(N)=O)C(=O)N[C@@H](CCCNC(=N)N)C(=O)N[C@@H](CCCNC(=N)N)C(=O)O (H-VWILAAINRR-OH)
- Stability [1]: Stable
- inhibition [2]: Dose-dependent-effect
- inhibition [3]: Active
- inhibition [4]: Active
- inhibition [5]: Dose-dependent-effect
- inhibition [6]: Dose-dependent-effect
- inhibition [7]: Active
- inhibition [8]: Dose-dependent-effect
- inhibition [9]: Dose-dependent-effect
- inhibition [10]: Active
- pKd [11]: 7.24
- pKd [12]: ~6.83
- inhibition [13]: Active
- inhibition [14]: Dose-dependent-effect
- Stability [15]: Stable
- inhibition [16]: Active
- Activity [17]: Non-toxic
- inhibition [18]: Dose-dependent-effect
- inhibition [19]: Dose-dependent-effect
- inhibition [20]: Dose-dependent-effect
- inhibition [21]: Dose-dependent-effect
- inhibition [22]: Active
- Activity [23]: inactive
- inhibition [24]: Dose-dependent-effect
- inhibition [25]: Active
- Activity [26]: 50%
- Activity [27]: Non-toxic
- inhibition [28]: Dose-dependent-effect
- inhibition [29]: Active
- inhibition [30]: Dose-dependent-effect
